EC50 and IC50 data for 15 compounds are collected here from patent US20250320213A1, “Nitrogen-Containing Heterocyclic Compounds” (Pfizer Inc., priority 2024, published 2025).

In the first experiment the target is T1, STAT6 (Homo sapiens, UniProt P42226).
T1 construct: stably transfected HaCaT keratinocyte cell line, which expresses NanoLuc luciferase reporter gene under the transcriptional control of the STAT6 responsive promoter; endogenous in cells; host or cells: HaCaT keratinocyte reporter cell line (stably transfected with a NanoLuc reporter)
T1 sequence (P42226 1-847): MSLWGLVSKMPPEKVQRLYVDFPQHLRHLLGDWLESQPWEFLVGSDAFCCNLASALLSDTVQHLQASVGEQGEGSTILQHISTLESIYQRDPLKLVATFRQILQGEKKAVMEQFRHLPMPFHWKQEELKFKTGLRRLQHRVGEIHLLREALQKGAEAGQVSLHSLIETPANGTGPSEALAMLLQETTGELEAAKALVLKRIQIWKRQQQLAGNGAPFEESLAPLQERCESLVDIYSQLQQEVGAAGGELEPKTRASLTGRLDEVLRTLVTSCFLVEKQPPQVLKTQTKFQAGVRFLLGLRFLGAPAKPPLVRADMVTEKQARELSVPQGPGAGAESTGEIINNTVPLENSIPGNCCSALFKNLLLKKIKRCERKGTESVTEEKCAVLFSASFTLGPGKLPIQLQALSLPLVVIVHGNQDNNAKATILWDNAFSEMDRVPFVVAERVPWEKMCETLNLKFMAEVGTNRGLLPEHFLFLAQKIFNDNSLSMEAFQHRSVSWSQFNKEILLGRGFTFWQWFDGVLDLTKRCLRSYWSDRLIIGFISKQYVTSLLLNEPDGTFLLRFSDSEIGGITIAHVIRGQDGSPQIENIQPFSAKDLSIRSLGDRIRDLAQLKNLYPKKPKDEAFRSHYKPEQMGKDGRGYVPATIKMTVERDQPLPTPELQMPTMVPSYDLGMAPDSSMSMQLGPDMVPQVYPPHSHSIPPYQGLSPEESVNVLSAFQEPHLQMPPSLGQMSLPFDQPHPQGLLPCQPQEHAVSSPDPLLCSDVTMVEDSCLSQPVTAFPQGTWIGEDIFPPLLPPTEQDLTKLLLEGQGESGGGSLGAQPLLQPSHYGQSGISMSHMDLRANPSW
The experiment in a line: STAT6 Reporter Luciferase Assay (IL-13 stimulated HaCaT keratinocyte NanoLuc reporter cells). As to conditions: IL-13 stimulated HaCaT STAT6 NanoLuc reporter cells; read-out: Reporter EC50. Type of experiment: cell-based. Put shortly:
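Luminescence from a NanoLuc reporter driven by the STAT6-responsive IL-13Ra2 promoter in HaCaT keratinocytes serves as the read-out. Compounds are given 2 h before a 4 h stimulation with 0.12 nM IL-13.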
Take `CC(C)n1nc(C(=O)NCc2ccc(NC(=O)N3CCC(C)(N(C)C)C3)c(F)c2)c2c1[C@@H](C)CN(c1ccc(C(=O)N(C)C)cc1)C2` (stereo partly drawn) [Example 679, (7S)-N-(4-(3-(dimethylamino)-3-methylpyrrolidine-1-carboxamido)-3-fluorobenzyl)-5-(4-(dimethylcarbamoyl)phenyl)-1-isopropyl-7-methyl-4,5,6,7-tetrahydro-1H-pyrazolo[4,3-c]pyridine-3-carboxamide]: the EC50 came to 3 nM. Same read-out and setting: to `CC(C)n1nc(C(=O)NCc2ccc(NC(=O)N3CC4(CCCN(C)C4)C3)cc2)c2c1[C@@H](C)CN(c1ccc(C(=O)N(C)C)cc1)C2` [Example 741, (S)-5-(4-(dimethylcarbamoyl)phenyl)-1-isopropyl-7-methyl-N-(4-(6-methyl-2,6-diazaspiro[3.5]nonane-2-carboxamido)benzyl)-4,5,6,7-tetrahydro-1H-pyrazolo[4,3-c]pyridine-3-carboxamide] belongs 1 nM. On the same count and under the same terms, as for `CC(C)n1nc(C(=O)NCc2ccc(NC(=O)N(C)C)cc2)c2c1CCN(c1ccc(C(=O)N3CCn4ncnc4C3)cn1)C2` [Example 367, N-(4-(3,3-dimethylureido)benzyl)-1-isopropyl-5-(5-(5,6,7,8-tetrahydro-[1,2,4]triazolo[1,5-a]pyrazine-7-carbonyl)pyridin-2-yl)-4,5,6,7-tetrahydro-1H-pyrazolo[4,3-c]pyridine-3-carboxamide], the figure is 72 nM; as for `CC(C)n1nc(C(=O)NCc2ccc(NC(=O)N(C)C)cc2)c2c1CCN(c1ccc(C(=O)N3CCn4nccc4C3)cn1)C2` [Example 425, N-(4-(3,3-dimethylureido)benzyl)-1-isopropyl-5-(5-(4,5,6,7-tetrahydropyrazolo[1,5-a]pyrazine-5-carbonyl)pyridin-2-yl)-4,5,6,7-tetrahydro-1H-pyrazolo[4,3-c]pyridine-3-carboxamide], 34 nM. On the same count and under the same terms, to `CC(C)n1nc(C(=O)NCc2ccc(NC(=O)N(C)C)cc2)c2c1CCN(c1ccc(C(=O)N3C[C@H]4CCO[C@H]4C3)cn1)C2` (racemic) [Example 331, rac-N-(4-(3,3-dimethylureido)benzyl)-5-(5-((3aR,6aR)-hexahydro-2H-furo[2,3-c]pyrrole-5-carbonyl)pyridin-2-yl)-1-isopropyl-4,5,6,7-tetrahydro-1H-pyrazolo[4,3-c]pyridine-3-carboxamide] belongs 606 nM; to `CC(C)n1nc(C(=O)NCc2ccc(NC(=O)N3CCN(C)CC3)cc2)c2c1C(C(F)(F)F)CN(c1ccc(C(=O)N(C)C)cc1)C2` (racemic) [Example 703, rac-(R)-5-(4-(dimethylcarbamoyl)phenyl)-1-isopropyl-N-(4-(4-methylpiperazine-1-carboxamido)benzyl)-7-(trifluoromethyl)-4,5,6,7-tetrahydro-1H-pyrazolo[4,3-c]pyridine-3-carboxamide], 1 nM. Take `CC(=O)NC1(C)CN(C(=O)c2ccc(N3CCc4c(c(C(=O)NCc5ccc(NC(=O)N(C)C)cc5)nn4C(C)C)C3)nc2)C1` [Example 330, 5-(5-(3-acetamido-3-methylazetidine-1-carbonyl)pyridin-2-yl)-N-(4-(3,3-dimethylureido)benzyl)-1-isopropyl-4,5,6,7-tetrahydro-1H-pyrazolo[4,3-c]pyridine-3-carboxamide]: the EC50 worked out at 1980 nM.

On to `CC(C)n1nc(C(=O)NCc2ccc(NC(=O)N(C)C)cc2)c2c1CCN(c1ccc(C(=O)N3CC4(COCC(=O)N4)C3)cn1)C2` [Example 288, N-(4-(3,3-dimethylureido)benzyl)-1-isopropyl-5-(5-(6-oxo-8-oxa-2,5-diazaspiro[3.5]nonane-2-carbonyl)pyridin-2-yl)-4,5,6,7-tetrahydro-1H-pyrazolo[4,3-c]pyridine-3-carboxamide], for which the half-maximal effective concentration (EC50) came out at 1640 nM.

Take `CC(C)n1nc(C(=O)NCc2ccc(NC(=O)N(C)C)cc2)c2c1CCN(c1ccc(C(=O)N3CCc4c(ncn4C)C3)cn1)C2` [Example 421, N-(4-(3,3-dimethylureido)benzyl)-1-isopropyl-5-(5-(1-methyl-4,5,6,7-tetrahydro-1H-imidazo[4,5-c]pyridine-5-carbonyl)pyridin-2-yl)-4,5,6,7-tetrahydro-1H-pyrazolo[4,3-c]pyridine-3-carboxamide]: the EC50 came to 18 nM. The same measure, in the same setting: as for `COC[C@@H]1CCCN1C(=O)c1ccc(N2CCc3c(c(C(=O)NCc4ccc(NC(=O)N(C)C)cc4)nn3C(C)C)C2)nc1` [Example 209, (S)-N-(4-(3,3-dimethylureido)benzyl)-1-isopropyl-5-(5-(2-(methoxymethyl)pyrrolidine-1-carbonyl)pyridin-2-yl)-4,5,6,7-tetrahydro-1H-pyrazolo[4,3-c]pyridine-3-carboxamide], the figure is 692 nM. As to `CC(C)n1nc(C(=O)NCc2ccc(NC(=O)N(C)C)cc2)c2c1CCN(c1ccc(C(=O)N3CCc4ccccc4C3)cn1)C2` [Example 435, N-(4-(3,3-dimethylureido)benzyl)-1-isopropyl-5-(5-(1,2,3,4-tetrahydroisoquinoline-2-carbonyl)pyridin-2-yl)-4,5,6,7-tetrahydro-1H-pyrazolo[4,3-c]pyridine-3-carboxamide], the EC50 was found to be 10 nM. The same measure, in the same setting: to `CC(C)n1nc(C(=O)NCc2ccc(NC(=O)N3CC(N(C)C)C3)cc2)c2c1[C@@H](C)CN(c1ccc(C(=O)N(C)C)cc1)C2` [Example 746, (S)-N-(4-(3-(dimethylamino)azetidine-1-carboxamido)benzyl)-5-(4-(dimethylcarbamoyl)phenyl)-1-isopropyl-7-methyl-4,5,6,7-tetrahydro-1H-pyrazolo[4,3-c]pyridine-3-carboxamide] belongs 1 nM. Same read-out and setting: as for `CC(=O)NC1CN(C(=O)c2ccc(N3CCc4c(c(C(=O)NCc5ccc(NC(=O)N(C)C)cc5)nn4C(C)C)C3)nc2)C1` [Example 292, 5-(5-(3-acetamidoazetidine-1-carbonyl)pyridin-2-yl)-N-(4-(3,3-dimethylureido)benzyl)-1-isopropyl-4,5,6,7-tetrahydro-1H-pyrazolo[4,3-c]pyridine-3-carboxamide], the figure is 990 nM.

Still in this experiment, the particulars now being: STAT6 NanoLuc luciferase reporter, IL-13 stimulated HaCaT keratinocyte cells; read-out: Reporter EC50.
As for `CC(C)n1nc(C(=O)NCc2ccc(NC(=O)N(C)C)cc2)c2c1CCN(c1ccc(N3CC4(CC4)CC3=O)cn1)C2` [Example 97, N-(4-(3,3-dimethylureido)benzyl)-1-isopropyl-5-(5-(6-oxo-5-azaspiro[2.4]heptan-5-yl)pyridin-2-yl)-4,5,6,7-tetrahydro-1H-pyrazolo[4,3-c]pyridine-3-carboxamide], the EC50 came out at 65 nM.

As for `CC(C)n1nc(C(=O)NCc2ccc(NC(=O)N(C)C)cc2)c2c1CCN(c1ccc(N3CCCC3=O)cn1)C2` [Example 1, N-(4-(3,3-dimethylureido)benzyl)-1-isopropyl-5-(5-(2-oxopyrrolidin-1-yl)pyridin-2-yl)-4,5,6,7-tetrahydro-1H-pyrazolo[4,3-c]pyridine-3-carboxamide], the EC50 stood at 11 nM.

The test system of the next experiment is CCL17 secretion in peripheral human whole blood. The experiment in a line: Human Whole Blood (HWB) CCL17 TR-FRET Assay (IL-13 stimulated CCL17 secretion). The conditions noted are these: Homo sapiens, 48 h, inhibition of CCL17 secretion in human whole blood, 10 ng/mL IL13, 48 hours. Type of experiment: cell-based. How it is done:
The IC50 (half-maximal concentration required for inhibition) of compounds for the inhibition of CCL17 secretion in peripheral human whole blood, stimulated through the IL-13-IL-13 receptor/IL-4 receptor pathway was evaluated with a TR-FRET sandwich ELISA CCL17 (TARC) Assay Kit (Bioauxilium).
Test compounds (solubilized and serially diluted in DMSO, in an 11 point, 3-fold dilution series in duplicate) were spotted, 80 nL per well, into a 384 well v-bottom polypropylene plate. Human whole blood was collected from a peripheral vein, 714 units of sodium heparin was added for every 50 mL of blood collected. Sixty μL per well of blood was added to the compound plate. The blood plate was incubated for two hours at 37° C. After two hours, CCL17 production was stimulated with the addition of 20 μL per well of IL13 (R&D Systems) in HBSS with calcium and magnesium, with a final concentration of 10 ng/mL IL13. The plate containing blood, compound, and IL-13 was incubated at 37° C. for 48 hours, to allow for CCL17 production. After 48 hours, the plate was centrifuged at 1,500 revolutions per minute (RPM) for 7 minutes, with no braking. The CCL17 TR-FRET Assay Kit detection reagent was prepared according to kit instructions and 4 μL per well of the antibody cocktail was added to a 384-well white low volume non-binding coated plate (Corning). Sixteen μL of serum from the centrifuged blood plate was transferred to the detection plate containing the TR-FRET antibody cocktail. The plate was centrifuged briefly, then covered and incubated 16 hours at room temperature. The plate was then read on an EnVision 2105 multilabel reader (PerkinElmer) with settings for TR-FRET Ratio=10,000×(fluorescence intensity 665 nm/fluorescence intensity 615 nm).
`CC(C)n1nc(C(=O)NCc2ccc(NC(=O)N(C)C)cc2)c2c1CCN(c1ccc(N3CC4(CC4)CC3=O)cn1)C2` [Example 97, N-(4-(3,3-dimethylureido)benzyl)-1-isopropyl-5-(5-(6-oxo-5-azaspiro[2.4]heptan-5-yl)pyridin-2-yl)-4,5,6,7-tetrahydro-1H-pyrazolo[4,3-c]pyridine-3-carboxamide] yielded a half-maximal inhibitory concentration (IC50) of 3480 nM. Still for that read-out and setting: as for `CC(C)n1nc(C(=O)NCc2ccc(NC(=O)N(C)C)cc2)c2c1CCN(c1ccc(N3CCCC3=O)cn1)C2` [Example 1, N-(4-(3,3-dimethylureido)benzyl)-1-isopropyl-5-(5-(2-oxopyrrolidin-1-yl)pyridin-2-yl)-4,5,6,7-tetrahydro-1H-pyrazolo[4,3-c]pyridine-3-carboxamide], the figure is 318 nM.
